These results are taken from PubChem BioAssay (NCI).

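Five concentrations, 48 hours, 96-well plates. TGI is the concentration that stops growth completely.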 Where only a bound is given, the exact number is not on record here.

Test systems include A549 NSCLC; DU-145 prostate; HCC-2998 colon; HS 578T breast; M14 melanoma; NCI-H522 lung; OVCAR-8 ovarian; SF-295 CNS; SK-OV-3 ovarian; UACC-257 melanoma.
What all share (experiment): NCI-60 cell line screen, 48 h

For the molecule `Cc1nc2ccccc2c(=O)n1NC(=O)Cc1ccccc1`, the TGI in the test on A549 NSCLC, in the test with DU-145 prostate, in the test on HCC-2998 colon, in the test on HS 578T breast, in the test on M14 melanoma and in the test with NCI-H522 lung was > 100 µM in each case. In addition, the TGI in the test on OVCAR-8 ovarian, in the test on SF-295 CNS, with SK-OV-3 ovarian and in the test on UACC-257 melanoma was > 100 µM throughout.
As for `COc1cc2c3c(cc(Cl)nc3c1OC)C(O)(CC(C)=O)C(=O)N2` (stereo not given), the TGI is > 62.3 µM with A549 NSCLC; > 53.6 µM with DU-145 prostate; > 60.5 µM in the test on HCC-2998 colon; > 100 µM in the test with HS 578T breast; 36.5 µM in the test on M14 melanoma; 26 µM with NCI-H522 lung. Further, the TGI with OVCAR-8 ovarian was 36.2 µM; in the test on SF-295 CNS, > 100 µM; in the test with SK-OV-3 ovarian, > 72.8 µM; in the test with UACC-257 melanoma it was 21.5 µM.
Turning to `CC(C)OC(=O)c1ccc(CCC2=CC(=O)C(Br)=CC2=O)cc1`, the TGI with A549 NSCLC is > 100 µM; in the test on DU-145 prostate, 63.3 µM; in the test on HCC-2998 colon, 31.9 µM; in the test with HS 578T breast, 38.1 µM; in the test on M14 melanoma it was 31.2 µM; in the test with NCI-H522 lung it was 19.3 µM. Besides, the TGI in the test on OVCAR-8 ovarian is 32.8 µM; with SF-295 CNS it was 39.6 µM; with SK-OV-3 ovarian, > 100 µM; in the test with UACC-257 melanoma, 26.9 µM.
As for `COc1ccc(N2C(=O)C3c4[nH]c5ccccc5c4C4CCC(C(C)C)CC4C3C2=O)cc1` (stereo not given), the TGI in the test with A549 NSCLC, with DU-145 prostate, with HCC-2998 colon, in the test on HS 578T breast, with M14 melanoma and with NCI-H522 lung was > 100 µM in each case. Moreover, the TGI with OVCAR-8 ovarian, in the test on SF-295 CNS, in the test with SK-OV-3 ovarian and in the test with UACC-257 melanoma was > 100 µM in each case.
Take `O=C(c1ccc(Cl)cc1)N1N=C(c2ccc(Cl)cc2)CC1(O)c1cc(F)c(Cl)cc1Cl` (stereo not given): the TGI with A549 NSCLC was > 100 µM; in the test with DU-145 prostate, > 100 µM; with HCC-2998 colon it was 47.1 µM; in the test on HS 578T breast, > 100 µM; in the test on M14 melanoma it was 78.3 µM; in the test with NCI-H522 lung, > 100 µM. Further, the TGI in the test on OVCAR-8 ovarian, in the test on SF-295 CNS, with SK-OV-3 ovarian and in the test on UACC-257 melanoma was > 100 µM in each case.
On to `N=C(N)n1[nH]c2c(c1=O)CCC2`, for which the TGI in the test on A549 NSCLC, with DU-145 prostate, in the test with HCC-2998 colon, with HS 578T breast, with M14 melanoma and in the test on NCI-H522 lung was > 100 µM each time. The TGI in the test with OVCAR-8 ovarian, with SF-295 CNS, in the test with SK-OV-3 ovarian and in the test on UACC-257 melanoma was > 100 µM each time.
With `CC1CCC2c3c([nH]c4ccccc34)C3C(=O)N(C4CCCCC4)C(=O)C3C2C1` (stereo not given), the TGI is 50.3 µM in the test with A549 NSCLC; > 100 µM with DU-145 prostate; > 100 µM in the test on HCC-2998 colon; 57.4 µM with HS 578T breast; 59.3 µM in the test with M14 melanoma; > 100 µM in the test with NCI-H522 lung. In addition, the TGI in the test with OVCAR-8 ovarian was 42.5 µM; with SF-295 CNS it was 37.5 µM; with SK-OV-3 ovarian it was 42.5 µM; in the test with UACC-257 melanoma it was > 100 µM.
As for `COc1ccc2[nH]c(C(=O)N3CC(CCl)c4ccc([N+](=O)[O-])cc43)cc2c1` (stereo not given), the TGI in the test with A549 NSCLC, in the test on DU-145 prostate, in the test on HCC-2998 colon, in the test on HS 578T breast, in the test with M14 melanoma and with NCI-H522 lung was > 100 µM throughout. Besides, the TGI in the test with OVCAR-8 ovarian, in the test on SF-295 CNS, with SK-OV-3 ovarian and with UACC-257 melanoma was > 100 µM each time.
With `COCC(=O)[C@]1(O)Cc2c(O)c3c(c(O)c2[C@@H](OC2CC(N)C(O)C(C)O2)C1)C(=O)c1c(OC)cccc1C3=O` (stereo not given in full), the TGI with A549 NSCLC was determined as 17.4 µM; with DU-145 prostate, 0.974 µM; in the test with HCC-2998 colon, 0.691 µM; with HS 578T breast it was 0.0892 µM; in the test with M14 melanoma, 0.275 µM; with NCI-H522 lung, 0.124 µM. For the same molecule, the TGI in the test with OVCAR-8 ovarian was found to be 3.95 µM; in the test with SF-295 CNS, 1.34 µM; with SK-OV-3 ovarian, 4.03 µM; in the test on UACC-257 melanoma, 1.48 µM.
For the molecule `C1OCN2c3nonc3N3COCN4c5nonc5N1C2C43` (stereo not given), the TGI with A549 NSCLC, with DU-145 prostate, with HCC-2998 colon, with HS 578T breast, in the test with M14 melanoma and in the test on NCI-H522 lung was > 100 µM in each case. Further, the TGI in the test on OVCAR-8 ovarian, in the test with SF-295 CNS, with SK-OV-3 ovarian and with UACC-257 melanoma was > 100 µM each time.
`COC(=O)C1=C(OC(=O)/C(=C/c2ccc(Cl)cc2)c2ccccc2)C(C(=O)OC)[C@@]2(O)[C@@H](C(=O)OC)[C@H](C)C[C@@H]1[C@@H]2C(=O)OC` (stereo not given in full): the TGI with A549 NSCLC, in the test with DU-145 prostate, with HCC-2998 colon, in the test on HS 578T breast, in the test with M14 melanoma and in the test with NCI-H522 lung was > 100 µM in each case. For the same molecule, the TGI with OVCAR-8 ovarian, in the test on SF-295 CNS, with SK-OV-3 ovarian and in the test with UACC-257 melanoma was > 100 µM throughout.
For the molecule `COc1ccc(OC)c(CNc2ccc(O)c(C(=O)NCCc3ccc(F)cc3)c2)c1`, the TGI in the test on A549 NSCLC was > 100 µM; in the test with DU-145 prostate, 34.5 µM; in the test with HCC-2998 colon, 8.98 µM; with HS 578T breast, > 100 µM; with M14 melanoma it was 26.8 µM; in the test on NCI-H522 lung, 7.56 µM. Also, the TGI in the test with OVCAR-8 ovarian came out at 37.6 µM; in the test on SF-295 CNS it was 51.7 µM; in the test with SK-OV-3 ovarian, 46.3 µM; in the test on UACC-257 melanoma it was 41 µM.
Take `CCOC(=O)/C=C(/C(=O)OCC)n1c(=O)c(C)cn(C2CC(N=[N+]=[N-])C(CO)O2)c1=O` (stereo not given): the TGI was > 100 µM with A549 NSCLC; > 100 µM in the test on DU-145 prostate; 31.4 µM in the test with HCC-2998 colon; > 100 µM with HS 578T breast; > 100 µM in the test on M14 melanoma; > 100 µM in the test on NCI-H522 lung. Also, the TGI was > 100 µM in the test with OVCAR-8 ovarian, > 100 µM in the test with SF-295 CNS, > 100 µM in the test on SK-OV-3 ovarian and 86.1 µM in the test with UACC-257 melanoma.
